This is an account of results in article PMC3445516 (PLoS ONE, 2012).

Each structure is given as a SMILES string. Where two headings read alike, the source gives them in different places.

Holding throughout (test): Ambit kinase profiling, competition binding
Assay [1] addresses T1, MAP4K4 (Homo sapiens, UniProt O95819).
T1 construct: purchased Ambit Biosciences (KINOMEscan)
On the procedure: (§1) Also included in the kinase profile are four isoforms of PKC (δ, ε, η, θ) and eight isoforms of CAMKs (CAMKIα, δ, γ; CAMKIIα, β, δ, γ; CAMK4).
(§2) The global kinase profiling experiment was performed by Ambit Biosciences.

The target in assay [2] is T2, SRC (Homo sapiens, UniProt P12931).
T2 construct: purchased Ambit Biosciences (KINOMEscan)
On the procedure:
as §1, §2

The target in assay [3] is T3, ERK3 (Homo sapiens, UniProt Q16659).
T3 construct: purchased Ambit Biosciences (KINOMEscan)
On the procedure: as §1, §2

Assay [4] concerns the target T4, PKAC-beta (Homo sapiens, UniProt P22694).
T4 construct: purchased Ambit Biosciences (KINOMEscan)
The procedure:
as §1, §2

For assay [5], the target named is T5, ERK4 (Homo sapiens, UniProt P31152).
T5 construct: purchased Ambit Biosciences (KINOMEscan)
The procedure: as §1, §2

The target in assay [6] is T6, YES (Homo sapiens, UniProt P07947).
T6 construct: purchased Ambit Biosciences (KINOMEscan)
On the procedure:
as §1, §2

In assay [7] the target is T7, EGFR(L858R) (Homo sapiens, UniProt P00533, L858R).
T7 construct: purchased Ambit Biosciences (KINOMEscan)
The settings on record: for % Competition: 10 µM. The procedure:
as §1, §2

Assay [8] has as its target T8, RET(M918T) (Homo sapiens, UniProt P07949, M918T).
T8 construct: purchased Ambit Biosciences (KINOMEscan)
On the procedure: as §1, §2

For assay [9], the target named is T9, JAK1 (JH2 domain-pseudokinase) (Homo sapiens, UniProt P23458).
T9 construct: JAK1 (JH2 domain-pseudokinase); purchased Ambit Biosciences (KINOMEscan)
The settings on record: for % Competition: JAK1 (JH2 domain-pseudokinase), 10 µM. On the procedure: as §1, §2

The target of assay [10] is T10, TNIK (Homo sapiens, UniProt Q9UKE5).
T10 construct: purchased Ambit Biosciences (KINOMEscan)
On the procedure: as §1, §2

Assay [11] has as its target T11, EGFR (Homo sapiens, UniProt P00533).
T11 construct: purchased Ambit Biosciences (KINOMEscan)
The settings on record: for % Competition: 10 µM. On the procedure: as §1, §2

Assay [12] addresses T12, PCTK1 (Homo sapiens, UniProt Q00536).
T12 construct: purchased Ambit Biosciences (KINOMEscan)
The procedure: as §1, §2

Assay [13] concerns the target T13, NLK (Homo sapiens, UniProt Q9UBE8).
T13 construct: purchased Ambit Biosciences (KINOMEscan)
T13 sequence (Q9UBE8 1-527): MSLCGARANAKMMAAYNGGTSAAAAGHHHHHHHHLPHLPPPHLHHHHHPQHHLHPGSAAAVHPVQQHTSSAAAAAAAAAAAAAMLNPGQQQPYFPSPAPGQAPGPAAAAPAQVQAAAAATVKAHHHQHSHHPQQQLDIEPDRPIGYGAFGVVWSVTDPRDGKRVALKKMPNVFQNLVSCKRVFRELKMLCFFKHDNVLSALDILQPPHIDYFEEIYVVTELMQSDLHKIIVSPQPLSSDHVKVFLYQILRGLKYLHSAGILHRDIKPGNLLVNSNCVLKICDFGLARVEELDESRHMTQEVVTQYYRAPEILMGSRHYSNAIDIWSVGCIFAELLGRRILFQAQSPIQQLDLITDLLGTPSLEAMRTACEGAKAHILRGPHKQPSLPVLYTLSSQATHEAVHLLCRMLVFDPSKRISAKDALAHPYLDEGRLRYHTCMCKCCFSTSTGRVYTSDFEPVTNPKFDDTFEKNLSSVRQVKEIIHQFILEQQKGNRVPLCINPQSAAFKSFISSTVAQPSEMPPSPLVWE
On the procedure:
as §1, §2

The target of assay [14] is T14, CAMKIIβ (Homo sapiens, UniProt Q13554).
T14 construct: purchased Ambit Biosciences (KINOMEscan)
The following applies: for competition: CAMKIIβ, 10 µM. The procedure:
as §1, §2

Assay [15] has as its target T15, EGFR(G719S) (Homo sapiens, UniProt P00533, G719S).
T15 construct: purchased Ambit Biosciences (KINOMEscan)
The following applies: for % Competition: 10 µM. The procedure: as §1, §2

The target of assay [16] is T16, CLK1 (Homo sapiens, UniProt P49759).
T16 construct: purchased Ambit Biosciences (KINOMEscan)
The procedure: as §1, §2

Assay [17] concerns the target T17, TTK (Homo sapiens, UniProt P33981).
T17 construct: purchased Ambit Biosciences (KINOMEscan)
T17 sequence (P33981 1-857): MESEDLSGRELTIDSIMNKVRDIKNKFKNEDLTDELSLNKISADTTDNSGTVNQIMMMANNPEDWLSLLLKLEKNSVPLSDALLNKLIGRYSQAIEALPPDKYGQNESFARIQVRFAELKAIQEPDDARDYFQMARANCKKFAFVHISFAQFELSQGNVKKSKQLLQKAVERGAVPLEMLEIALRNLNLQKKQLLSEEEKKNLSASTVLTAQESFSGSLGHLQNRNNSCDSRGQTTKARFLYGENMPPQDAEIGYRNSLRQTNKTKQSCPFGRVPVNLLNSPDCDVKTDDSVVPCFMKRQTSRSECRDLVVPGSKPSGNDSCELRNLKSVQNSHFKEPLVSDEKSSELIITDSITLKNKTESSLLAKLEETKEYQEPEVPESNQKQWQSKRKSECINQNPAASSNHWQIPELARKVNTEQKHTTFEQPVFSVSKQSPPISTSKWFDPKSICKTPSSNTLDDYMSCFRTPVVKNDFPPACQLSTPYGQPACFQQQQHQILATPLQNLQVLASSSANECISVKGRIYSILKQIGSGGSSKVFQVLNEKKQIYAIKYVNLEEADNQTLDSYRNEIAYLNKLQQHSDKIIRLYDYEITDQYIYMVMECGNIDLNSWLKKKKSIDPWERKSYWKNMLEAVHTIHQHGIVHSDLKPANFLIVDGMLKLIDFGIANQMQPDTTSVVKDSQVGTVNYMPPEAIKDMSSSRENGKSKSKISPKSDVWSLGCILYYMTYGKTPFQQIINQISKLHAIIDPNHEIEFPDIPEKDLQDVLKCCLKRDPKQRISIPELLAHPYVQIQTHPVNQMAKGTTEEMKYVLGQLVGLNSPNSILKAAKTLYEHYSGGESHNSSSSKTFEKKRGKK
The procedure:
as §1, §2

The target of assay [18] is T18, CIT (Homo sapiens, UniProt O14578).
T18 construct: purchased Ambit Biosciences (KINOMEscan)
The settings on record: for % Competition: 10 µM. On the procedure: as §1, §2

T3 sequence (Q16659 whole entry): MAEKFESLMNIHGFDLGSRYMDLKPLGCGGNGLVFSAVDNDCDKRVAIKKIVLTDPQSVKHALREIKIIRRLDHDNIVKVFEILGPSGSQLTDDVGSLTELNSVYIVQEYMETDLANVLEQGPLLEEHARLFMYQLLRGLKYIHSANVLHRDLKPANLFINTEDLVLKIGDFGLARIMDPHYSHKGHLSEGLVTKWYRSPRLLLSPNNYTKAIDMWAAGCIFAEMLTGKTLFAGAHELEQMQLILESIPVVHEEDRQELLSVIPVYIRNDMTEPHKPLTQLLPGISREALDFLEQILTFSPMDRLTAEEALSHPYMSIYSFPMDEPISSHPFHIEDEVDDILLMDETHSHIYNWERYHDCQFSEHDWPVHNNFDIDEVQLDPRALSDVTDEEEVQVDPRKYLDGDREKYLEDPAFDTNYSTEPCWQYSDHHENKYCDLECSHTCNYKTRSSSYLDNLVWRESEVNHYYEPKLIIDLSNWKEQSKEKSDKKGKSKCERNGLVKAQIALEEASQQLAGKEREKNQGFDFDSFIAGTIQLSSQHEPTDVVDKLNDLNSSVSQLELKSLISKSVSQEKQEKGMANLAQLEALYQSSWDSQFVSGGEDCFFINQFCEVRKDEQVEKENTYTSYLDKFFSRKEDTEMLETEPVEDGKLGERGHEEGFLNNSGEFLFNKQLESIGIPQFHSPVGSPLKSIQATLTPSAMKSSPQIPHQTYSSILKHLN
T6 sequence (P07947 whole entry): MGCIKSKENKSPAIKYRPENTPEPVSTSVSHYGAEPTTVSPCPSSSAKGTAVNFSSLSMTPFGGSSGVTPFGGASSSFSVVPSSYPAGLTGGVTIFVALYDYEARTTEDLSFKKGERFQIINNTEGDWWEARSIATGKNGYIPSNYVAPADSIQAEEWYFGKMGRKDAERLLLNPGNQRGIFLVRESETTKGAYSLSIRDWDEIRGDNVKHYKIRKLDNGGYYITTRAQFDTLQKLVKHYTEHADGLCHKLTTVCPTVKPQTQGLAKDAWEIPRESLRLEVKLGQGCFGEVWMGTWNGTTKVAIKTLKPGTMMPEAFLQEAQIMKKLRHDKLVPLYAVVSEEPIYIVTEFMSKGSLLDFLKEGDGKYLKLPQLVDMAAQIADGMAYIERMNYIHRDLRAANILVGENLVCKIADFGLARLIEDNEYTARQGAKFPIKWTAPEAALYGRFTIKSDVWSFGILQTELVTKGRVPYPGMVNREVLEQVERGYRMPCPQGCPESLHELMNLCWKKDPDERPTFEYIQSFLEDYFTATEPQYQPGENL
T16 sequence (P49759 whole entry): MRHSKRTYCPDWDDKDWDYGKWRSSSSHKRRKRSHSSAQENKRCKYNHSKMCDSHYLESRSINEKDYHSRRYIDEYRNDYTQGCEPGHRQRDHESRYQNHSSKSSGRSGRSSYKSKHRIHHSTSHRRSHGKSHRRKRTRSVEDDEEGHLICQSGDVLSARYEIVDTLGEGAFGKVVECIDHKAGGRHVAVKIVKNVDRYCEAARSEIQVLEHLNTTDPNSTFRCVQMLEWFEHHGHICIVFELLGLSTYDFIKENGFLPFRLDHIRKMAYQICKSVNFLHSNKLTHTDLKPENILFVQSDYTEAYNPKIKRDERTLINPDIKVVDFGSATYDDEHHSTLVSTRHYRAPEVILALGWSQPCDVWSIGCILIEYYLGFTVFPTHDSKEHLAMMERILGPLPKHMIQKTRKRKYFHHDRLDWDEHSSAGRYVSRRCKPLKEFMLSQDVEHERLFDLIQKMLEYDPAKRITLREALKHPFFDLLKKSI
T5 sequence (P31152 whole entry): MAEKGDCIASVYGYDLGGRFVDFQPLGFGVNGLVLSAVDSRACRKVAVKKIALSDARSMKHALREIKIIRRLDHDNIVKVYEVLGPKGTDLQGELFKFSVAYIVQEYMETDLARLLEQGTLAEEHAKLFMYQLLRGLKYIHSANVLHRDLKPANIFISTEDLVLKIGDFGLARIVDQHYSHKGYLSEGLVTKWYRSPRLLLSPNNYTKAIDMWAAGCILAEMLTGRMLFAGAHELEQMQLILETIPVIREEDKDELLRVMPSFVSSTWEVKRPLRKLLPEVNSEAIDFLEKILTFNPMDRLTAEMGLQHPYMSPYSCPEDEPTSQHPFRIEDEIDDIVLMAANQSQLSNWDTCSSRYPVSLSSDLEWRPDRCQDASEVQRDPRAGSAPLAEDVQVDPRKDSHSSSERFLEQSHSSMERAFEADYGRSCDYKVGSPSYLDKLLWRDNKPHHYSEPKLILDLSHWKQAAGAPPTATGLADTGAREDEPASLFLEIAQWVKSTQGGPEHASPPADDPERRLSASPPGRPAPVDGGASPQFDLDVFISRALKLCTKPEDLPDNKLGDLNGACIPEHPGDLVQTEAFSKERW
T9 sequence (P23458 583-855 limits assumed): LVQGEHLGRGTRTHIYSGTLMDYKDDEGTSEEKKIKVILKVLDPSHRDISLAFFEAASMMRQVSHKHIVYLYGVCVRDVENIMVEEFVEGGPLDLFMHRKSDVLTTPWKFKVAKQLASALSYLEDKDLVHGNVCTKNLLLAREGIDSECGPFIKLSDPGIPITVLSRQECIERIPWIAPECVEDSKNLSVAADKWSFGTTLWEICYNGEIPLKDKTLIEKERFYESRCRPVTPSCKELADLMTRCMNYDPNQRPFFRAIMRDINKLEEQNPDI
T2 sequence (P12931 whole entry): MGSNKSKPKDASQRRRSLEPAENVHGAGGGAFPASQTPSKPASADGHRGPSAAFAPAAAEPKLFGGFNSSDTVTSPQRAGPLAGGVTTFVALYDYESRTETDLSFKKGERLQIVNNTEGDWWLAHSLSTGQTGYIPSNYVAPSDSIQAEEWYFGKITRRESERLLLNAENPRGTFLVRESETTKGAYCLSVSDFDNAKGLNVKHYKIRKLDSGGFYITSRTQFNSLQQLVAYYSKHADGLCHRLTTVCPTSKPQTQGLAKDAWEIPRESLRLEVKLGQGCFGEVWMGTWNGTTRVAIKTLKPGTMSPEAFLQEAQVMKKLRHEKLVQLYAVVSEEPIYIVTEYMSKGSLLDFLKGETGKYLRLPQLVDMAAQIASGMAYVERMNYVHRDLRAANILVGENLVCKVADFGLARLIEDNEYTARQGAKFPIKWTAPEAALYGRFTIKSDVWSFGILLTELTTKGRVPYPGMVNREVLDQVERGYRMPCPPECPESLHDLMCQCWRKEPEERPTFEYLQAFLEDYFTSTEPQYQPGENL
T1 sequence (O95819 whole entry): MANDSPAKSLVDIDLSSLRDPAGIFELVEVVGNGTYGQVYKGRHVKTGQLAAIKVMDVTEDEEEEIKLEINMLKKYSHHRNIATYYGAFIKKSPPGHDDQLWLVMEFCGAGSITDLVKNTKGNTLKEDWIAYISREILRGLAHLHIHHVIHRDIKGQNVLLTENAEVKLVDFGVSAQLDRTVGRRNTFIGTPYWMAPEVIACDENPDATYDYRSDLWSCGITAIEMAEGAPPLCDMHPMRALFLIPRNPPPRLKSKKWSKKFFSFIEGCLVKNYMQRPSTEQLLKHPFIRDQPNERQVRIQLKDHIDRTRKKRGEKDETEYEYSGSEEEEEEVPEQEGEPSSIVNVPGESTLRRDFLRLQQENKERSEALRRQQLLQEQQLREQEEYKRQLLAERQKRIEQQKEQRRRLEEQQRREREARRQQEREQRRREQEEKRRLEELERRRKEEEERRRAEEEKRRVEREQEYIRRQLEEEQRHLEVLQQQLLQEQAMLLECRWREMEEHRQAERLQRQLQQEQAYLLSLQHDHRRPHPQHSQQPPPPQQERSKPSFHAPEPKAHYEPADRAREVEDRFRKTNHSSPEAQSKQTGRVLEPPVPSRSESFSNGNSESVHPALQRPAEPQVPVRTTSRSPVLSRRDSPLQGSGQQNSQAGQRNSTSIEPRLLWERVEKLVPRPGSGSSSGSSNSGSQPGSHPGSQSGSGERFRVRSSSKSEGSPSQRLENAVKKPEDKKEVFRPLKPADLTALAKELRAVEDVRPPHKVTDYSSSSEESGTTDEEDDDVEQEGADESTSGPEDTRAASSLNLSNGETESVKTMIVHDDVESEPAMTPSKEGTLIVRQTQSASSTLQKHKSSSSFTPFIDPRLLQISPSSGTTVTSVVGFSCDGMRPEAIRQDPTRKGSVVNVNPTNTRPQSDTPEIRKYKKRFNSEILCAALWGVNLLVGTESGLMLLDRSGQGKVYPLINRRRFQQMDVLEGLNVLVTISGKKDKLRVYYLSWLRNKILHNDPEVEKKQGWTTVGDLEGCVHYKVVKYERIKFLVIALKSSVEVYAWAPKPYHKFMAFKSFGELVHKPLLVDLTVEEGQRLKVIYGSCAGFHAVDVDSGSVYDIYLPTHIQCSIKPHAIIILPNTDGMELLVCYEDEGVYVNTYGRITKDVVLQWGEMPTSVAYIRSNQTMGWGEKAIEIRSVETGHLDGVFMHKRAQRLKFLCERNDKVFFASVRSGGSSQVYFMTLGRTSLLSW
T12 sequence (Q00536 whole entry): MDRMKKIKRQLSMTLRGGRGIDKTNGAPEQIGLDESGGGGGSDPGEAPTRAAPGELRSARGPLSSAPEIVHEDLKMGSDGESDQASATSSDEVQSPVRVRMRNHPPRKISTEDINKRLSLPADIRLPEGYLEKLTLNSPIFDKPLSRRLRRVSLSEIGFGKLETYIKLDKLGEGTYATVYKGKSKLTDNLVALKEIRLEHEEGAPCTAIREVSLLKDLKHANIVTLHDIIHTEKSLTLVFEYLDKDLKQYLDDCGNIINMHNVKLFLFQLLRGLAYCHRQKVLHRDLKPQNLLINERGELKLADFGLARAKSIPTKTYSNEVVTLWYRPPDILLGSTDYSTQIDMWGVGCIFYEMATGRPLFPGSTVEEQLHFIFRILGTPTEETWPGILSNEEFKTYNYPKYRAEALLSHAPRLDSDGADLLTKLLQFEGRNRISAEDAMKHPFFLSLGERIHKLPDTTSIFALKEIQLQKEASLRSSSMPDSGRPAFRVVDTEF

Take `CC(O)CNc1cc(-c2[nH]c3cccnc3c2-c2ccc(F)cc2)ccn1` (stereo not drawn) [Compound 140]: the inhibition at 10 µM in assay [1] (read-out: % Competition), in [2] (read-out: % Competition), in assay [3] (read-out: % Competition), in assay [4] (read-out: % Competition), in [5] (read-out: % Competition) and in assay [6] (read-out: % Competition) was below 50% throughout. The inhibition at 10 µM in assay [8] (read-out: % Competition) is below 50%; in [10] (read-out: % Competition), below 50%; in [12] (read-out: % Competition), below 50%; in assay [13] (read-out: % Competition), 91%; in [16] (read-out: % Competition) it was below 50%; in assay [17] (read-out: % Competition), 90%. Further, the “% Competition” value in [7] came out at 84%; in assay [9], 90%; in [11], 76%; in assay [15], 70%; in [18], 99%. Also, the competition in [14] is below 50%.

`Fc1ccc(-c2c(-c3ccncc3)[nH]c3nccnc23)cc1` [RO1155697-000-005]: the inhibition at 10 µM worked out at 84% in assay [1] (MAP4K4, compound concentration 10 uM, read-out: Percent Competition); 87% in assay [2] (SRC, compound concentration 10 uM, read-out: Percent Competition); 98% in assay [3] (ERK3, compound concentration 10 uM, read-out: Percent Competition); 67% in assay [4] (PKAC-beta, compound concentration 10 uM, read-out: Percent Competition); 68% in assay [5] (ERK4, compound concentration 10 uM, read-out: Percent Competition); 73% in assay [6] (YES, compound concentration 10 uM, read-out: Percent Competition). Moreover, the inhibition at 10 µM is 68% in assay [8] (RET(M918T), compound concentration 10 uM, read-out: Percent Competition); 96% in [10] (TNIK, compound concentration 10 uM, read-out: Percent Competition); 100% in assay [12] (PCTK1, compound concentration 10 uM, read-out: Percent Competition); 98% in assay [13] (NLK, compound concentration 10 uM, read-out: Percent Competition); below 50% in [14] (CAMK2B, compound concentration 10 uM, read-out: Percent Competition); 97% in assay [16] (CLK1, compound concentration 10 uM, read-out: Percent Competition). The inhibition at 10 µM in assay [17] (TTK, compound concentration 10 uM, read-out: Percent Competition) was found to be 88%. Also, the “Percent Competition” value in assay [7] (compound concentration 10 uM) stood at 98%; in assay [9] (JAK1(JH2domain-pseudokinase), compound concentration 10 uM) it was 99%; in assay [11] (compound concentration 10 uM), 95%; in assay [15] (compound concentration 10 uM), 96%; in assay [18] (compound concentration 10 uM), 99%.

`Fc1ccc(-c2c(-c3ccncc3)[nH]c3nccnc23)cc1` [Compound 122]: the inhibition at 10 µM worked out at 84% in assay [1] (MAP4K4, 10 µM, read-out: % Competition); 87% in [2] (SRC, 10 µM, read-out: % Competition); 98% in assay [3] (ERK3, 10 µM, read-out: % Competition); 67% in assay [4] (PKAC-beta, 10 µM, read-out: % Competition); 68% in [5] (ERK4, 10 µM, read-out: % Competition); 73% in assay [6] (YES, 10 µM, read-out: % Competition). Moreover, the inhibition at 10 µM in [8] (RET(M918T), 10 µM, read-out: % Competition) is 68%; in [10] (TNIK, 10 µM, read-out: % Competition), 96%; in assay [12] (PCTK1, 10 µM, read-out: % Competition), 100%; in [13] (NLK, 10 µM, read-out: % Competition), 98%; in [16] (CLK1, 10 µM, read-out: % Competition), 97%; in assay [17] (TTK, 10 µM, read-out: % Competition), 88%. For the same compound, the “% Competition” value in assay [7] was determined as 98%; in assay [9], 99%; in [11], 95%; in [15], 96%; in [18] it was 99%. Also, the competition in [14] was below 50%.
